Test results reported in US20220409617A1, “Drug Formulations and Methods of Treatment for Metabolic Disorders” (The Regents of the University of California, priority 2019, published 2022).

Experiments:
[1] = Fasting blood glucose and oral glucose tolerance test in HFD-fed mice; format: in vivo, mouse
Method: Mice were fasted for 6 h prior to blood glucose testing at ZT10. When sphingolipid-like compound 893 treatment was combined with an OGTT, mice were treated at ZT6. Once baseline fasting blood glucose was determined using a handheld blood glucose meter (Prodigy Diabetes Care, Charlotte, N.C.) and a drop of blood collected from a tail vein nick, mice were gavaged with an oral glucose solution (20% w/v in water, 2 g/kg bodyweight) and blood glucose measured in a drop of tail vein blood at 0, 15, 30, 60 and 120 min. The area under the curve was determined using Graphpad Prism software.

[2] = Home-cage feeding study with suboptimal leptin (leptin sensitization); format: in vivo, mouse
Excerpt: Leptin is secreted by adipocytes in proportion to their triglyceride content, signaling to the CNS when peripheral energy stores are full and food consumption should decrease. In HFD-fed mice, chronic increases in adiposity lead to elevations in circulating leptin with no accompanying decrease in food intake, a state that has been termed leptin-resistant. Reducing leptin levels in the blood restores leptin signaling in the hypothalamus (S. Zhao, et al., 2019, cited supra). Thus, the sphingolipid-like compound 893 should function as a leptin-sensitizing agent. To test this model, 18 week old lean, male C57BL/6J mice were treated intraperitoneally with a suboptimal dose of recombinant leptin at ZT8.5 and food intake and body weight measured over the next 18 h. […] In summary, the reduction in food intake in sphingolipid-like compound 893-treated mice is consistent with the reversal of mitochondrial fragmentation in the hypothalamus and likely due in part to the re-sensitization of anorexigenic POMG neurons to leptin when plasma leptin levels are decreased.
Mice were singly housed and allowed to acclimate for 72 h before food intake was monitored. Food consumption was determined by monitoring the weight of food in the hopper. Initial food and body weight measurements were taken at ZT9 and final measurements were taken 16 h later to capture the active period where most consumption occurred. Home cage feeding studies were performed with C57BL/6J mice maintained on a HFD for 24 weeks (33 weeks of age), or ob/ob mice at 8 weeks of age. Mice received vehicle or 120 mg/kg sphingolipid-like compound 893 by gavage at ZT8.5. For experiments involving leptin, 18 week old, SD fed (16% kcal from fat, 2020×, Envigo) C57BL/6J mice received vehicle or 120 mg/kg sphingolipid-like compound 893 by gavage at ZT8.5. […] One ob/ob mouse died during Echo MRI for unknown reasons after 6 d of treatment with sphingolipid-like compound 893; data from this mouse was analyzed prior to death.

CCCCCCCCc1ccc([C@H]2CCN[C@@H]2CO)cc1.Cl [compound 893]
Fasting glucose and glucose disposal (OGTT) ([1]; 60 mg/kg three days a week for 25 days): intermediate effect | Fasting glucose and glucose disposal (OGTT) ([1]; 120 mg/kg three days a week for 25 days): normalized both fasting glucose and glucose disposal | Food intake and body weight over 18 h, single agent ([2]; lean chow-fed 18 week old mice, leptin 2 mg/kg i.p. or 893 120 mg/kg by gavage): trend towards reduced food intake and body weight | Food intake and body weight over 18 h, combined with leptin ([2]; lean chow-fed mice, 893 120 mg/kg by gavage plus leptin 2 mg/kg i.p.): statistically significant decrease in food intake and body weight
